Experimental data published in patent publication US11541132B2, “Radiolabeled compounds” (Hoffmann-La Roche Inc., priority 2017, dated 2023).

Assays:
[1] = molecular target: T1, native aSyn aggregates in A30P transgenic mouse brain sections (Homo sapiens, UniProt P37840, A30P); assay: aSyn in vitro displacement assay ([3H]Example-3 autoradiography); format: binding, mutant human aSyn gene); conditions: 3 nM [3H]Example-3, A30P transgenic mouse brain sections; for inhibition at 1 µM: 1 μM compound, read-out: PCT_INHIB A30P @ 1 μM (% displacement of [3H]Example-3); for inhibition at 3 µM: 3 μM compound, read-out: PCT_INHIB A30P @ 3 μM
T1 construct: from tissue; host or cells: brain sections (midbrain and pons as ROI) of A30P transgenic mice, line B6.D2-Tg(Thy1-SNCA*30P)31Pjk

[2] = molecular target: T2, native Aβ aggregates in human AD brain tissue sections (Homo sapiens, UniProt P05067); assay: Aβ in vitro displacement assay (selectivity counterscreen, [3H]Example 3 autoradiography); format: binding; conditions: 3 nM [3H]Example 3, human AD brain sections; for inhibition at 1 µM: 1 μM compound, read-out: sel. counterscreen PCT_INHIB AD @ 1 μM (% displacement of [3H]Example 3); for inhibition at 3 µM: 3 μM compound, read-out: sel. counterscreen PCT_INHIB AD @ 3 μM
T2 construct: native Aβ aggregates in human AD brain tissue samples; from tissue; host or cells: human AD brain tissue sections

[3] = molecular target: T3, aSyn aggregates (LBs) in human PD brain tissue (Homo sapiens, UniProt P37840); assay: aSyn in vitro binding assay on human PD tissue sections; conditions: higher magnification
T3 construct: tissue Banner Sun Health Research Institute; host or cells: human PD brain (cortical) tissue sections
Description: Human PD brain tissue blocks were obtained from the Banner Sun Health Research Institute (Sun City, Ariz., USA). Pathological diagnosis of PD was made according to standard criteria based on neuropathological data.
(§1) Ten μm thick A30P transgenic mouse brain sections and human PD brain sections are generated with a cryostat (Leica CM3050) at −17° C. chamber temperature and −15° C. object temperature. Sections are transferred to Histobond+ microscope slides (Marienfeld Laboratory Glasware). After drying for 3 hours at room temperature the sections are stored at −20° C. The sections are incubated with the radioligand (0.3-30 nM) and the respective cold compound (at various concentrations) in 50 mM Tris buffer, pH 7.4 at room temperature for 30 min. After washing 3×10 min at 4° C. in 50 mM Tris buffer, pH 7.4 and 3 quick dips in H2O dist. at 4° C. the sections are dried at 4° C. for 3 h. The sections are placed in a FujiFilm Cassette, exposed to an Imaging Plate (BAS-IP TR 2025) for five days and afterwards scanned with a FujiFilm IP reader (BAS-5000) with a resolution of […] per pixel.
(§2) Antibody staining of sections is performed after exposure and scanning of the tissue sections undergoing classical autoradiographical analysis. Brain sections were hydrated in PBS and blocked in 1% bovine serum albumin, 1% ovalbumin and 1% normal goat serum in PSB for 20 min. […]

[4] = molecular target: T4, aSyn aggregates in A30P transgenic mouse brain tissue (Homo sapiens, UniProt P37840, A30P); assay: aSyn in vitro binding assay (autoradiography of tritiated compounds); parameters: species or system mutant human aSyn gene)
T4 construct: from tissue; host or cells: brain sections (midbrain and pons as ROI) of A30P transgenic mice, line B6.D2-Tg(Thy1-SNCA*30P)31Pjk
Description: as §1
as §2, with “min. This is followed by overnight incubation at 4° C. with a mixture of anti-aSyn pS129 monoclonal antibody (generated in-house; 1 μg/mL) in blocking buffer.” for “min.”

[5] = molecular target: native Aβ aggregates in human AD brain sections (Homo sapiens, UniProt P05067); assay: Aβ in vitro binding assay (autoradiography); conditions: human AD cortical tissue section, 3 nM (FIG. 8)
Chain of native Aβ aggregates in human AD brain sections (P05067 672-713 limits assumed): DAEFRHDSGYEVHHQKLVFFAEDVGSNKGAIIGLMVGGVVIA
Description: Ten μm thick A30P transgenic mouse brain sections and human PD brain sections are generated with a cryostat (Leica CM3050) at −17° C. chamber temperature and −15° C. object temperature. Sections are transferred to Histobond+ microscope slides (Marienfeld Laboratory Glasware). After drying for 3 hours at room temperature the sections are stored at −20° C. The sections are incubated with the radioligand (0.3-30 nM) and the respective cold compound (at various concentrations) in 50 mM Tris buffer, pH 7.4 at room temperature for 30 min. After washing 3×10 min at 4° C. in 50 mM Tris buffer, pH 7.4 and 3 quick dips in H2O dist. at 4° C. the sections are dried at 4° C. for 3 h. The sections are placed in a FujiFilm Cassette, exposed to an Imaging Plate (BAS-IP TR 2025) for five days and afterwards scanned with a FujiFilm IP reader (BAS-5000) with a resolution of 25 μM per pixel.
This direct in vitro binding assay assesses the affinity of radiotracers for native Aβ aggregates in tissue sections by autoradiography.

T2 sequence (P05067 672-713 limits assumed): as above

Row | inhibition at 1 µM [1] [%] | inhibition at 1 µM [2] [%] | SMILES | other results
1 | 88 | 89 | COc1ccc(C(=O)Nc2ccc(N3CCN(c4ccc(C#N)cn4)CC3)cc2)cc1OC [Example 159, N-(4-(4-(5-Cyanopyridin-2-yl)piperazin-1-yl)phenyl)-3,4-dimethoxybenzamide] | 
2 | 96 | 95 | COc1ccc(C(=O)Nc2ccc(N3CCN(c4ccc(C#N)cn4)CC3)cc2)cc1F [Example 160, N-(4-(4-(5-Cyanopyridin-2-yl)piperazin-1-yl)phenyl)-3-fluoro-4-methoxybenzamide] | 
3 | 84 | 87 | N#Cc1ccc(N2CCN(c3ccc(NC(=O)c4ccncc4)cc3)CC2)nc1 [Example 161, N-(4-(4-(5-Cyanopyridin-2-yl)piperazin-1-yl)phenyl)isonicotinamide] | 
4 | 84 | 78 | COc1ccc(C(=O)Nc2ccc(N3CCN(c4ccc(C#N)cn4)CC3)cc2)nc1 [Example 162, N-(4-(4-(5-Cyanopyridin-2-yl)piperazin-1-yl)phenyl)-5-methoxypicolinamide] | 
5 | 94 | 92 | COc1ccc(C(=O)Nc2ccc(N3CCN(c4ccc(C#N)cc4)CC3)cc2)cc1F [Example 163, N-(4-(4-(4-Cyanophenyl)piperazin-1-yl)phenyl)-3-fluoro-4-methoxybenzamide] | 
6 | 80 | 90 | N#Cc1ccc(C(=O)Nc2ccc(N3CCN(c4ccc(C#N)cn4)CC3)cc2)cc1 [Example 164, 4-Cyano-N-(4-(4-(5-cyanopyridin-2-yl)piperazin-1-yl)phenyl)benzamide] | 
7 | 86 | 90 | N#Cc1ccc(N2CCN(c3ccc(NC(=O)c4ccncn4)cc3)CC2)cc1 [Example 165, N-(4-(4-(4-Cyanophenyl)piperazin-1-yl)phenyl)pyrimidine-4-carboxamide] | 
8 | 81 | 70 | COc1ccc(C(=O)Nc2ccc(N3CCN(c4ccc(C#N)cc4)CC3)cc2)nc1 [Example 166, N-(4-(4-(4-Cyanophenyl)piperazin-1-yl)phenyl)-5-methoxypicolinamide] | 
9 | 91 | 88 | COc1ccc(C(=O)Nc2ccc(N3CCN(c4ccc(C#N)cc4)CC3)cc2)cc1C [Example 167, N-(4-(4-(4-Cyanophenyl)piperazin-1-yl)phenyl)-4-methoxy-3-methylbenzamide] | 
10 | 95 | 96 | COc1ccc(C(=O)Nc2ccc(N3CCN(c4ccc(C#N)cc4)CC3)cc2)c(C)c1 [Example 168, N-(4-(4-(4-Cyanophenyl)piperazin-1-yl)phenyl)-4-methoxy-2-methylbenzamide] | 
11 | 83 | 82 | COc1ccc(C(=O)Nc2ccc(N3CCN(c4ccc(C#N)cc4)CC3)cc2)cc1OC [Example 169, N-(4-(4-(4-Cyanophenyl)piperazin-1-yl)phenyl)-3,4-dimethoxybenzamide] | 
12 | 86 | 82 | COc1ccc(C(=O)Nc2ccc(N3CCN(c4ccc(C#N)cn4)CC3)cc2)cc1C [Example 170, N-(4-(4-(5-Cyanopyridin-2-yl)piperazin-1-yl)phenyl)-4-methoxy-3-methylbenzamide] | 
13 | 89 | 92 | COc1ccc(C(=O)Nc2ccc(N3CCN(c4ccc(C#N)cn4)CC3)cc2)cn1 [Example 171, N-(4-(4-(5-Cyanopyridin-2-yl)piperazin-1-yl)phenyl)-6-methoxynicotinamide] | 
14 | 93 | 84 | COC(=O)c1ccc(N2CCN(c3ccc(NC(=O)c4ccc(OC)cc4)cc3)CC2)nc1 [Example 172, Methyl 6-(4-(4-(4-methoxybenzamido)phenyl)piperazin-1-yl)nicotinate] | 
15 | 83 | 82 | COc1ccc(C(=O)Nc2ccc(N3CCN(c4ccc(C#N)nc4)CC3)cc2)nc1 [Example 173, N-(4-(4-(6-Cyanopyridin-3-yl)piperazin-1-yl)phenyl)-5-methoxypicolinamide] | 
16 |  |  | C#CCOc1ccc(C(=O)Nc2ccc(N3CCN(c4ccc(C#N)cn4)CC3)cc2)cc1 [Example 174, N-[4-[4-(5-Cyano-2-pyridyl)piperazin-1-yl]phenyl]-4-prop-2-ynoxy-benzamide] | inhibition at 3 µM [1]: 87%; inhibition at 3 µM [2]: 100%
17 |  |  | C#CCOCCOc1ccc(C(=O)Nc2ccc(N3CCN(c4ccc(C#N)cn4)CC3)cc2)cc1 [Example 175, N-[4-[4-(5-Cyano-2-pyridyl)piperazin-1-yl]phenyl]-4-(2-prop-2-ynoxyethoxy)benzamide] | inhibition at 3 µM [1]: 85%; inhibition at 3 µM [2]: 98%
18 |  |  | C#Cc1ccc(N2CCN(c3ccc(NC(=O)c4ccc(OC)cc4)cc3)CC2)nc1 [Example 176, N-[4-[4-(5-Ethynyl-2-pyridyl)piperazin-1-yl]phenyl]-4-methoxy-benzamide] | inhibition at 3 µM [1]: 102%; inhibition at 3 µM [2]: 97%
19 |  |  | C#CCOc1ccc(C(=O)Nc2ccc(N3CCN(c4ccccn4)CC3)cc2)cc1 [Example 177, 4-Prop-2-ynoxy-N-[4-[4-(2-pyridyl)piperazin-1-yl]phenyl]benzamide] | inhibition at 3 µM [1]: 96%; inhibition at 3 µM [2]: 97%
20 |  |  | C#CCOCCOc1ccc(C(=O)Nc2ccc(N3CCN(c4ccccn4)CC3)cc2)cc1 [Example 178, 4-(2-Prop-2-ynoxyethoxy)-N-[4-[4-(2-pyridyl)piperazin-1-yl]phenyl]benzamide] | inhibition at 3 µM [1]: 97%; inhibition at 3 µM [2]: 93%
21 |  |  | [3H]C([3H])([3H])Oc1ccc(C(=O)Nc2ccc(N3CCN(c4ccccn4)CC3)cc2)cc1 [[^3H]Example-3, 4-[^3H3] Methoxy-N-[4-(4-pyridin-2-ylpiperazin-1-yl)phenyl]benzamide] | co-localization of autoradiogram hot spots with LBs stained by aSyn mAb pS129 [3]: good co-localization; co-localization of radioligand binding and aSyn antibody pS129 staining ([4]; A30P transgenic mouse brain sections): excellent co-localization; binding to aSyn aggregates in A30P transgenic mouse brain tissue ([4]; radioligand 3 nM (FIG. 1), midbrain and pons): strong binding
22 |  |  | [3H]C([3H])(F)Oc1ccc(C(=O)Nc2ccc(N3CCN(c4cccnc4)CC3)cc2)cc1 [[^3H]Example-134, [^3H]4-(Fluoromethoxy)-N-(4-(4-(pyridin-3-yl)piperazin-1-yl)phenyl)benzamide] | co-localization of radioligand binding and Aβ mAb staining [5]: excellent co-localization
